In patent US5849922A, “Preparation of substituted alkenoic acids” (Eli Lilly and Company, priority 1997, dated 1998):

Test system: TXA2 agonist activity
Test: Absence of Agonist Activity (pressor response in pithed rats)
Assay type: in vivo
Description: 3. Absence of Agonist Activity.

O=C(O)CCCC/C=C(\c1ccc(-c2nc(C(=O)NCCCCC3CCCCC3)co2)cc1)c1cccnc1 [Example 2, (E)-7-[4-[4-[[(4-Cyclohexylbutyl)amino]carbonyl]-2-oxazolyl]phenyl]-7-(3-pyridyl)hept-6-enoic Acid] was tested, and the “pressor response following i.v. administration” value (i.v., doses up to 10 mg/kg) was “absence of a pressor response”.
In the case of O=C(O)CCC/C=C\CC1C2CCC(C2)C1NS(=O)(=O)c1ccccc1 (centres unmarked) [Example S-145], the “increase in the mean arterial pressure” value (0.1 mg/kg i.v., at one minute after dosing) is reported as “transient, but significant, increase in the mean arterial pressure”.
